Laboratory results from ChEMBL document CHEMBL1157539, “Thousands of chemical starting points for antimalarial lead identification” (Nature, 2010).

Test system: Plasmodium falciparum
Test: GSK_TCMDC: Inhibition of Plasmodium falciparum 3D7 in whole erythrocytes, using parasite LDH activity as an index of growth.
Format: functional, organism-based
Conditions: Plasmodium falciparum, 3D7

With `Nc1nc2c(cnn2CCCCCCCP(=O)(O)O)c(=O)[nH]1` the XC50 was 469 nM.
Work on `CCN(CC)CCN(Cc1ccc(-c2ccc(C(F)(F)F)s2)cc1)C(=O)Cn1c(CCc2cccc(F)c2F)nc(=O)c2ccccc21` yielded an XC50 of 994 nM.
In the case of `CCN(CC)CCN(Cc1ccc(-c2ccc(C(F)(F)F)cc2)cc1)C(=O)Cn1c(CCc2ccc(F)c(C#N)c2)nc(=O)c2ccccc21`, the XC50 is reported as 769 nM.
In the case of `O=S(=O)(c1cc2ccccc2s1)N(CCC(O)(C(F)(F)F)C(F)(F)F)Cc1cccc(O)c1`, the XC50 is reported as 751 nM.
`CC(C)CNCc1cccc(-c2ccc(CN(C(=O)NC3CCCCC3)C3CCN(Cc4ccccc4)CC3)cc2)c1` was tested, and the XC50 was 763 nM.
In the case of `O=C(Nc1cc(C(F)(F)F)cc(C(F)(F)F)c1)Nc1ccc(Cl)c(Cl)c1`, the XC50 is reported as 240 nM.
Work on `C=CCc1cc(Br)ccc1OCCCOc1c(C)nc(N)nc1N` yielded an XC50 of 3.2 nM.
With `N=C(/N=C(/NCCCCCCN/C(=N/C(=N)NCc1ccc(Cl)c(Cl)c1)N1CCCCC1)N1CCCCC1)NCc1ccc(Cl)c(Cl)c1` the XC50 was 567 nM.
`COc1ccc(OC)c(C(O)CNC(C)C)c1` (centres undefined) gave an XC50 of 56 nM.
Work on `Nc1ncc(OC2CCCCC2)c(N)n1` yielded an XC50 of 1070 nM.
`COCCNCc1cccc(-c2ccccc2CN(C(=O)Nc2ccccc2)C2CCN(Cc3ccccc3)CC2)c1` was tested, and the XC50 was 914 nM.
Compound `COc1cccc(C2C(C(=O)Nc3ccccc3)=C(C)N=c3sc(=Cc4ccc(O)cc4)c(=O)n32)c1` (centres undefined) has an XC50 of 579 nM.
`Nc1ccc2[nH]cc(C3CCN(CC4CCN(C(=O)/C=C/c5ccc(Cl)c(Cl)c5)CC4)CC3)c2n1` gave an XC50 of 701 nM.
With `COc1cc(C2=NN(S(=O)(=O)c3c(C)cc(C)cc3C)CCCC2)ccc1Cl` the XC50 was 775 nM.
Compound `CC(C)(C)c1ccc(CNC(=O)c2ccc(-c3nc4ccc(Cl)cc4[nH]3)cc2)cc1` has an XC50 of 819 nM.
`Cn1nccc1C(=O)NCCNCc1cccc(-c2cccc(-c3nc4cc(F)ccc4[nH]3)c2)c1` was tested, and the XC50 was 261 nM.
For `COc1ccc2ncc(F)c(NC(=O)C3CCC(NCc4cc5c(F)cccc5[nH]4)CC3)c2n1` (centres undefined), the XC50 was 1090 nM.
For `COc1cc2[nH]c(-c3ccc(O)cc3)c(C)c(=O)c2c(OC)c1OC`, the XC50 was 717 nM.
For `CC(=O)Nc1ncc(C(=O)Nc2cccc(-c3cccc(-c4nc5cc(C(F)(F)F)ccc5[nH]4)c3)c2)s1`, the XC50 was 185 nM.
`O=C(CCc1c[nH]cn1)Nc1cccc(-c2ccc(-c3nc4cc(F)ccc4[nH]3)cc2)c1` showed an XC50 of 244 nM.
`CN(C)Cc1ccc(-c2ccc3c(Nc4ccc(Oc5ccccc5)cc4)ccnc3c2)o1` was tested, and the XC50 was 788 nM.
With `CN1CCC(Oc2ccc(CN3CC[C@H](NC(=O)c4ccc(Cl)c(Cl)c4)C3)cc2Cl)C1` (some centres undefined) the XC50 was 882 nM.
For `CC1(C)N=C(N)N=C(Nc2ccc(F)c(F)c2)N1`, the XC50 was 52.5 nM.
Work on `C=CCOC(=O)N1CCC(CNCc2ccc(-c3cccc(-c4nc5ccccc5[nH]4)c3)cc2)C1` (centres undefined) yielded an XC50 of 255 nM.
For `C[C@H]1CN(Cc2cccc(-c3cc(CNC(=O)c4cccc(CN5CCN(CCOc6ccccc6)CC5)c4)ccc3F)c2)CCN1`, the XC50 was 1110 nM.
`CC(=O)Nc1ccc(CN(Cc2ccc(F)cc2)Cc2cccc(Oc3ccccc3)c2)cc1` was tested, and the XC50 was 943 nM.
`O=C(Nc1ccccc1C(F)(F)F)Nc1nn(Cc2c(F)cccc2Cl)cc1Br` gave an XC50 of 337 nM.
`COc1ccc(C(=O)NC(Nc2ccc([N+](=O)[O-])cc2)C(Cl)(Cl)Cl)cc1` (centres undefined) was tested, and the XC50 was 1080 nM.
`C[C@H](Nc1nc(C(Oc2ccccc2)c2ccccc2)nc2[nH]ncc12)c1ccccc1` (some centres undefined) was tested, and the XC50 was 484 nM.
Compound `CC(C)C[C@@H](CNC[C@H](CC(C)C)NC(=O)OC(C)(C)C)NC(=O)OC(C)(C)C` has an XC50 of 1250 nM.
In the case of `O=C(Cc1c[nH]cn1)Nc1cccc(-c2ccc(-c3nc4cc(F)ccc4[nH]3)s2)c1`, the XC50 is reported as 660 nM.
Compound `CCOc1cc(Cc2cnc(N)nc2N)cc(OCC)c1OCCCCC(=O)OC` has an XC50 of 44.8 nM.
Compound `COc1ccc2nc3cc(Cl)ccc3c(NCCN3CCN(C)CC3)c2c1` has an XC50 of 124 nM.
`CN1CCN(CCCN(Cc2ccc(-c3cccc(CNCc4ccc5c(c4)OCO5)c3)cc2)C(=O)CCC2CCCC2)CC1` showed an XC50 of 1010 nM.
`COc1ccc2ncc(F)c(CCN3C[C@H](CNCc4cc(F)c5c(c4)NC(=O)CO5)[C@H](O)C3)c2n1` showed an XC50 of 667 nM.
`COc1ccc(O)c(Cc2cnc3nc(N)nc(N)c3c2C)c1` showed an XC50 of 36.8 nM.
`CC(=O)Nc1ccc2[nH]cc(C3CCN(CC4CCC(NC(=O)/C=C/c5ccc(Cl)c(Cl)c5)CC4)CC3)c2n1` (centres undefined) was tested, and the XC50 was 263 nM.
`COc1ccc(CNC(=O)Nc2cc3cc(-c4ccc(CN(C)C)cc4)ccc3n3c(C)nnc23)cc1` gave an XC50 of 852 nM.
With `COc1ccc(-c2ccc(NC(=O)c3cccc(C#N)c3)cc2)cc1CN1CCCN(C)CC1` the XC50 was 293 nM.
Compound `CCOC(=O)CN(c1ccc(Br)cc1OCCOc1cc(Br)ccc1N(CC(=O)OCC)C(C)C(=O)OCC)C(C)C(=O)OCC` (centres undefined) has an XC50 of 806 nM.
With `Cc1ccc(-c2cc(C(=O)Nc3ccc(S(=O)(=O)N4CCOCC4)cc3)[nH]n2)c(O)c1C` the XC50 was 920 nM.
With `OCCOCCNCc1cccc(C#Cc2cc3ncnc(Nc4ccc(OCc5cccc(F)c5)c(Cl)c4)c3s2)n1` the XC50 was 781 nM.
`N=c1c(C(=O)NCc2ccccc2)cc2c(=O)n3ccccc3nc2n1CCc1ccccc1` showed an XC50 of 535 nM.
`Cc1cc(=NN=Cc2ccccc2F)c2cccc(C)c2[nH]1` was tested, and the XC50 was 764 nM.
For `CCCc1ccc(S(=O)(=O)Nc2ccc3c(c2)CCC3)cc1`, the XC50 was 879 nM.
Work on `CO/C(=C\C=C\c1cc2cc(Cl)c(Cl)cc2[nH]1)C(=O)NCCCCN1CCN(c2ccccc2OC)CC1` yielded an XC50 of 514 nM.
`O=C(NCc1cccc(CN2CCOCC2)c1)c1cc(Br)cc(N2CCN(c3ccncc3)CC2)c1` was tested, and the XC50 was 858 nM.
Compound `COc1c(C2CCN(CCCCNC(=O)c3oc(-c4ccc(Cl)cc4)cc3CO)CC2)ccc2c1CCCC2` has an XC50 of 367 nM.
For `N#Cc1ccc(/C=C/C(=O)NCCCCCN2CCN(C(=O)Nc3ccc(Cl)c(C(F)(F)F)c3)CC2)cc1`, the XC50 was 780 nM.
In the case of `Cc1cccc2nc(C(=O)Nc3nc(CN4CCC(C)CC4)cs3)cn12`, the XC50 is reported as 758 nM.
Work on `Cc1ccc(-c2nc3cc(NC(=O)c4ccc([N+](=O)[O-])o4)ccc3o2)cc1Cl` yielded an XC50 of 160 nM.
In the case of `Cc1cccc2nc(-c3ccc(-c4ccc(NC(=O)NCc5ccccc5)cc4)s3)[nH]c12`, the XC50 is reported as 768 nM.
In the case of `O=C(NC1CCCCC1)c1ccc(O)c(-c2cccc(C(F)(F)F)c2)c1`, the XC50 is reported as 712 nM.
For `COc1ccc2nccc([C@@H](O)CN3CCC(NC(=O)/C=C/c4cc(F)cc(Br)c4)CC3)c2c1`, the XC50 was 172 nM.
With `CC(C)=C(C(=O)OCc1ccccc1)N1C(=O)[C@@H](NC(c2ccccc2)(c2ccccc2)c2ccccc2)[C@H]1[S+]([O-])CC(=O)OC(C)(C)C` (some centres undefined) the XC50 was 1020 nM.
With `CN(C)C(=O)n1cnc(S(=O)(=O)N(C)c2ccc(Cl)cc2)n1` the XC50 was 767 nM.
Work on `CCc1ccc(C(=O)NC(=O)c2ccccc2O)cc1` yielded an XC50 of 610 nM.
In the case of `COc1cc(NC(=O)/C=C/c2ccccc2OC(F)(F)F)cc(OCCN2CCN(CCN3CCOCC3)CC2)c1`, the XC50 is reported as 157 nM.
With `O=C(NC1CC1)c1ccc(N2CCN(Cc3ccc(Cl)cc3)CC2)nc1` the XC50 was 1340 nM.
`O=C(Nc1ccc2c(c1)OCO2)c1cc(-c2cccnc2)nc2ccc(Cl)cc12` gave an XC50 of 524 nM.
`CCOc1ccc(-c2nonc2NC(=O)c2ccco2)cc1OCC` gave an XC50 of 750 nM.
Work on `Cc1c(C)c2c(c(C)c1O)CC[C@@](C)(C(=O)N1CCC(CN3CCC(c4c[nH]c5ccccc45)CC3)CC1)O2` yielded an XC50 of 657 nM.
In the case of `FC(F)(F)c1cccc(CCNc2nccc(NCc3ccccc3Cl)n2)c1`, the XC50 is reported as 1170 nM.
`CN1CCCC1CCNCc1ccc(-c2ccc(CNCCc3ccccc3)cn2)cc1` (centres undefined) gave an XC50 of 1110 nM.
`CN(C(=O)/C=C/c1c(Cl)cccc1Cl)C1CCN(CCCCCNC(=O)/C=C/c2ccc(Cl)c(Cl)c2)CC1` gave an XC50 of 360 nM.
Compound `COc1cccc(C(=O)NCc2cccs2)c1Oc1ccccc1` has an XC50 of 63.5 nM.
In the case of `O=C(Nc1ccc(Cn2ncc(N3CCNCC3)c(Cl)c2=O)cc1)Nc1ccc(-c2ccccc2)cc1`, the XC50 is reported as 591 nM.
`Cc1cc(N2CC=CCC2)nc(NC(=N)Nc2ccc(Cl)cc2)n1` gave an XC50 of 782 nM.
`N=C(N)CCN(Cc1ccccc1)c1ccc(Cl)cc1` gave an XC50 of 257 nM.
`CCCCCN1CCC(CNS(=O)(=O)c2ccc(C(=O)Nc3cccc(C(F)(F)F)c3)cc2)CC1` was tested, and the XC50 was 747 nM.
`O=C(Nc1cccc(CN2CCCN(CC3CCCCC3)CC2)c1)c1ccc(Cl)c(Cl)c1` gave an XC50 of 962 nM.
`CC(C)N1CCN(C(=O)c2ccc(CNCCCN3CCN(c4ccccc4C(F)(F)F)CC3)s2)CC1` was tested, and the XC50 was 837 nM.
Work on `Cc1cccc(-c2nc3cc(NC(=O)c4ccc([N+](=O)[O-])o4)ccc3o2)c1` yielded an XC50 of 876 nM.
In the case of `Oc1cc(Nc2ccnc3ccc(I)cc23)c(F)cc1Cl`, the XC50 is reported as 1230 nM.
For `Cc1cc(OCCCn2ccnc2)ccc1-c1csc(/N=C(\N)NCc2ccccc2)n1`, the XC50 was 878 nM.
In the case of `O=C(Nc1cccc(-c2cccc(-c3nc4cc(F)ccc4[nH]3)c2)c1)c1ccncc1`, the XC50 is reported as 514 nM.
Compound `Nc1cccc(CNCc2ccc(-c3cccc(-c4nc5cc(C(F)(F)F)ccc5[nH]4)c3)cc2)c1` has an XC50 of 172 nM.
`CCOC(=O)c1cc(=O)c2ccc(OCC#N)cc2o1` was tested, and the XC50 was 1030 nM.
`CN(C)S(=O)(=O)c1ccc(N2C(=O)C3C(C2=O)C2(c4ccccc4)C(=O)C3(c3ccccc3)C(c3ccccc3)=C2c2ccccc2)cc1` (centres undefined) was tested, and the XC50 was 951 nM.
For `CN1CCN(c2ccnc3ccc(NC(=O)Cc4cccc(Cl)c4Cl)cc23)CC1`, the XC50 was 791 nM.
`Cc1ccc(CON2C(N)=NC(N)=NC2(C)C)c(Cl)c1.Cc1ccc(CON2C(N)=NC(N)=NC2(C)C)cc1Cl` was tested, and the XC50 was 3.2 nM.
Compound `CCOC(=O)C(C)(C)Oc1ccc(CN(Cc2ccc(CC(C)C)cc2)C(=O)Nc2ccc(F)cc2F)c(OC)c1` has an XC50 of 238 nM.
Compound `Cc1nn(-c2ccc(Cl)cc2)c2[nH]c(CN3CCN(c4cccc(Cl)c4)CC3)cc(=O)c12` has an XC50 of 240 nM.
With `Cc1cccc(C(=O)Nc2ccnc(N(C)C3CCN(Cc4cccc(O)c4)CC3)c2)c1` the XC50 was 944 nM.
`O=C(Nc1ccc(C2=NC3CCCCC3N2)cc1)Nc1ccc(C2=NC3CCCCC3N2)cc1` (centres undefined) gave an XC50 of 179 nM.
`CCCC(=O)c1cnc2c(Oc3cc(Cl)ncn3)cccc2c1Nc1ccccc1C` gave an XC50 of 336 nM.
In the case of `CCNc1cc(C(=O)N[C@@H](Cc2ccc(Cl)cc2)[C@H](O)CNC2CCCCC2)cc(N2CCCCS2(=O)=O)c1`, the XC50 is reported as 150 nM.
`Cc1nn(-c2ccccc2)c2nc(-c3ccccc3)cc(C(=O)N3CCOCC3)c12` gave an XC50 of 872 nM.
`CCN(CC)CCN(Cc1ccc(-c2ccc(C(F)(F)F)cc2)cc1)C(=O)Cn1c(CCc2cccc(F)c2F)cc(=O)cc1-c1ccccc1` was tested, and the XC50 was 778 nM.
In the case of `O=C(Nc1ccc(S(=O)(=O)N2CCOCC2)cc1)c1cc(-c2cc(Cl)ccc2O)n[nH]1`, the XC50 is reported as 770 nM.
Compound `COc1ccc2nccc([C@@H](O)CN3CCC(NC(=O)c4ccc(Cl)c([N+](=O)[O-])c4)CC3)c2c1` has an XC50 of 954 nM.
Work on `O=C1C(c2ccccc2)=C(Nc2ccc(OC(F)(F)F)cc2)c2ccccc21` yielded an XC50 of 107 nM.
In the case of `N#Cc1ccc2c(c1)CCN(CCC1CCC(NC(=O)c3cc4ccccc4[nH]3)CC1)CC2` (centres undefined), the XC50 is reported as 1010 nM.
For `COc1ccc(-c2ccc(NC(=O)c3ccc(C#N)cc3)cc2)cc1CN(C)CCO`, the XC50 was 629 nM.
